This is an account of results in patent US9260448B2, “Thienopyrimidinone derivatives as mGluR1 antagonists” (KOREA INSTITUTE OF SCIENCE AND TECHNOLOGY, priority 2013, dated 2016).

This test concerns the target mGluR1 (Homo sapiens, UniProt Q13255). Kind of test: mGluR1 activity screening using FDSS6000 (intracellular calcium, L-Glutamate stimulation). The class given is cell-based. As to conditions: Chem3 Cell Line (HTS145C:Millipore) stably expressing mGluR1, L-Glutamate 30 μM, Ca2+ fluorescent dye, read-out: IC50 (nM) against mGluR1. The method, then: mGluR1 Activity Screening Method Using FDSS6000
Cells of Chem3 Cell Line (HTS145C:Millipore) in which mGluR1 was stably expressed were adjusted to a density of 2×10^6/ml. 50 μl of the cells were plated in each well of a 96-well plate, and stabilized at 5% CO2 and 37° C. for 1 hr. The cells were allowed to react with an HBSS buffer containing a Ca^2+ fluorescent dye (FLIPR Calcium 5 assay kit: Molecular Devices) under the conditions of 5% CO2 and 37° C. for 30 min. As a result of the reaction, the cells were labeled with the fluorescent dye. Separately from the 96-well plate containing the fluorescently labeled cells, another 96-well plate was prepared that contained L-Glutamate (final concentration=30 μM) activating mGluR1 and a blocking drug to be screened. Most cell-based HTS systems have liquid application systems necessary for drug injection but no liquid inhalation systems. For this reason, 25 μl of each of the blocking drug and L-Glutamate was prepared at a 6-fold higher concentration in an HBSS buffer and diluted 6-fold in the final volume […] of the cell plate before measurement. Specifically, after drug pretreatment for 75 sec following recording the reference value at 20 sec, a change in intracellular calcium concentration caused by L-glutamate administration was measured using FDSS6000. The inhibitory effect of the test substance was expressed as a percent (%) relative to the area of the 480 nm/520 nm ratio in a control group untreated with the test substance. 10 μM PCTC20001 was always used as the control drug.
For detailed imaging of calcium, the cells were selectively exposed to an excitation wavelength (480 nm) from four xenon light sources mounted in FDSS6000 through a computer-controlled filter wheel. Data were recorded at 1.23-sec intervals. Emitter fluorescence light entering through a 520 nm long-pass filter was allowed to pass through a cooled CCD camera mounted in the system. An average 480 nm/520 nm ratio was obtained in each well of the 96-well plate using a digital fluorescence analyzer. All imaging data were collected and analyzed with the help of a dedicated program for FDSS6000 (Hamamatsu Photonics).
Measurement of IC50 Values Against mGluR1
The IC50 values (nM) of the novel compounds of Formula 1 according to the present invention against mGluR1 are shown in Table 1.
For orientation: Calcium flux is commonly read through the fluorescence of an indicator in the cells.

mGluR1, sequence (Q13255 19-1194): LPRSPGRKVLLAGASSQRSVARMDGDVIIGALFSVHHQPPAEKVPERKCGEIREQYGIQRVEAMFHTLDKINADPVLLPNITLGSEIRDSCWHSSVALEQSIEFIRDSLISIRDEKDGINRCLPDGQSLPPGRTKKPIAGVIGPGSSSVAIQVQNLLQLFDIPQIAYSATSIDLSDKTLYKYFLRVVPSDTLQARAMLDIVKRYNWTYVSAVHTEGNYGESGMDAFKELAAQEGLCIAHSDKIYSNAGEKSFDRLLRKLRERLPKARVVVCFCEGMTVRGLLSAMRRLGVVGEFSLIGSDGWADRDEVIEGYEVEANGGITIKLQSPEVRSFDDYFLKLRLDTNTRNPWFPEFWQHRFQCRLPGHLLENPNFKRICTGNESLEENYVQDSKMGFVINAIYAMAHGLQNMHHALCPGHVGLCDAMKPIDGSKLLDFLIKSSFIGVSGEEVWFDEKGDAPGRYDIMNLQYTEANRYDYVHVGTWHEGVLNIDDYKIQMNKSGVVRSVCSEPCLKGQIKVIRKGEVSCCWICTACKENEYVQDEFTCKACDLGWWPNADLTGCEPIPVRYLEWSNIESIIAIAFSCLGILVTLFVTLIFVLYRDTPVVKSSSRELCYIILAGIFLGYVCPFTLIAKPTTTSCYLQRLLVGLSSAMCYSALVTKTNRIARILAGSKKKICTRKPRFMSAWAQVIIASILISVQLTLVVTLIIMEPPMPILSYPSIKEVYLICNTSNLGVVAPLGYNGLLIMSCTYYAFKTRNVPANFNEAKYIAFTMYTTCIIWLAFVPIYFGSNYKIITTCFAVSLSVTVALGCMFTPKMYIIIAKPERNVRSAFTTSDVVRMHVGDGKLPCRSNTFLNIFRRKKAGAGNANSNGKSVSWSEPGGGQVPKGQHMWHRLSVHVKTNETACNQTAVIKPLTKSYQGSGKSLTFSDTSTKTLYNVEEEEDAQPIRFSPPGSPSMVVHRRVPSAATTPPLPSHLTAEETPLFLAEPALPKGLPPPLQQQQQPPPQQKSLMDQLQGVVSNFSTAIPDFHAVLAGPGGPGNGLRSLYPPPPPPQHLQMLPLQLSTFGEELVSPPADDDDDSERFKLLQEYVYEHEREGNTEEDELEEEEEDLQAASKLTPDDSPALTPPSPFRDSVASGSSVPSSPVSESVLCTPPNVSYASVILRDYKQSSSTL

Usually IC50 stands for the concentration needed to halve the response being measured. Consider `O=c1c2scc(-c3ccccc3)c2ncn1-c1ccccc1F` [Compound 2, 3-(2-Fluorophenyl)-7-phenylthieno[3,2-d]pyrimidin-4(3H)-one], for which the half-inhibitory concentration (IC50) worked out at 407 nM. Turning to `O=c1c2scc(-c3ccccc3)c2ncn1-c1cccc(Cl)c1` [Compound 6, 3-(3-Chlorophenyl)-7-phenylthieno[3,2-d]pyrimidin-4(3H)-one], the IC50 was determined as 58 nM. Next, `O=c1c2scc(-c3ccccc3)c2ncn1-c1ccc(Cl)cc1` [Compound 7, 3-(4-Chlorophenyl)-7-phenylthieno[3,2-d]pyrimidin-4(3H)-one]: 66 nM; `Cc1ccc(-n2cnc3c(-c4ccccc4)csc3c2=O)cc1` [Compound 18, 7-Phenyl-3-p-tolylthieno[3,2-d]pyrimidin-4(3H)-one]: 112 nM. Next, `C=Cc1cccc(-n2cnc3c(-c4ccccc4)csc3c2=O)c1` [Compound 29, 7-Phenyl-3-(3-vinylphenyl)thieno[3,2-d]-pyrimidin-4(3H)-one]: 74 nM; `O=c1c2scc(-c3ccccc3F)c2ncn1-c1ccc(Cl)cc1` [Compound 32, 3-(4-Chlorophenyl)-7-(2-fluorophenyl)thieno[3,2-d]pyrimidin-4(3H)-one]: 30 nM. Consider `Cc1ccc(-c2csc3c(=O)n(-c4ccc(Cl)cc4)cnc23)cc1` [Compound 58, 3-(4-Chlorophenyl)-7-(p-tolyl)thieno[3,2-d]pyrimidin-4(3H)-one], for which the concentration for half-maximal inhibition (IC50) is 80 nM. Next, `COc1ccc(-n2cnc3c(-c4ccc(C)cc4)csc3c2=O)cc1` [Compound 59, 3-(4-Methoxyphenyl)-7-(p-tolyl)thieno[3,2-d]pyrimidin-4(3H)-one]: 661 nM; `O=c1c2scc(-c3ccc4c(c3)OCO4)c2ncn1-c1ccc(Cl)cc1` [Compound 68, 7-(Benzo[d][1,3]dioxol-5-yl)-3-(4-chlorophenyl)thieno[3,2-d]pyrimidin-4(3H)-one]: 447 nM. Next, `COc1ccc(-n2cnc3c(-c4ccc5c(c4)OCO5)csc3c2=O)cc1` [Compound 69, 7-(Benzo[d][1,3]dioxol-5-yl)-3-(4-methoxyphenyl)thieno[3,2-d]pyrimidin-4(3H)-one]: 1990 nM. The value for `COc1ccc(-n2c(C)nc3c(-c4ccccc4)csc3c2=O)cc1` [Compound 74, 3-(4-Methoxyphenyl)-2-methyl-7-phenylthieno[3,2-d]pyrimidin-4(3H)-one] was 564 nM.
